# Patent US20230119324A1, “EGFR INHIBITION TRIGGERS AN ADAPTIVE RESPONSE BY CO-OPTING ANTIVIRAL SIGNALING PATHWAYS IN LUNG CANCER” (The United States Government as represented by the …, priority 2020, published 2023)
# Tests used:
# A549 xenografts = test: A549 xenograft tumor growth; type: in vivo, mouse; settings: control shRNA A549 tumors, nude mice; erlotinib 100 mg/kg/d
# Description: About two weeks later, mice would develop subcutaneous tumors. The mice were randomly divided into indicated groups.
# Referring to FIG. 17B, a similar in vivo experiments were performed with A549 xenografts (shIFNAR1 clone #2).
# IFNA1 and IFNB1 mRNA = test: qPCR for IFNA1 and IFNB1 mRNA in NSCLC patients' FFPE tissues; design: species or system human; settings: TKI treated versus TKI naive NSCLC patients
# Excerpt: Before vs After treatment: Formalin fixed paraffin-embedded (FFPE) tissues from 23 NSCLC patients were obtained from The Jackson Laboratory or UT Southwestern according to IRB-approved protocols. Thirteen specimens were obtained from UT Southwestern and ten from The Jackson Laboratory. Thirteen patients had no EGFR TKI treatment, and ten patients had undergone EGFR TKI treatment.
# Referring to FIG. 18A and FIG. 18B, IFNA1 and IFNB1 mRNA was detected by qPCR from 23 NSCLC patients’ FFPE tissues (13 untreated and 10 TKI-treated), collected from UT Southwestern Medical Center and The Jackson Laboratory. Data represents median ± IQR, **: p<0.01, ***: p<0.001, by Kolmogorov-Smimov test (KS test).
compound,measurement,setting,value
C#Cc1cccc(Nc2ncnc3cc(OCCOC)c(OCCOC)cc23)c1 [erlotinib],tumor growth,A549 xenografts,failed to inhibit the growth of control tumors
same,Type I IFN levels in patient tumor tissue,IFNA1 and IFNB1 mRNA,higher Type I IFN levels compared to TKI naive patients
